Reference: PMC5062470, “The mGluR2 positive allosteric modulator, SAR218645, improves memory and attention deficits in translational models of cognitive symptoms associated with schizophrenia” (Scientific Reports, 2016)

Legend:
OF1 mice = experiment: Maximal electroshock seizure (MES) test; format: in vivo; details: 10 mg/kg ip; vehicle 100
Protocol: SAR218645 (30 mg/kg, po) and the reference anticonvulsant agent, diazepam (10 mg/kg), were administered ip to OF1 mice (12–14 g) 30 min prior to test, respectively. An electrical stimulus (60 Hz, 0.8 ms rectangular pulse, 0.4 s duration, 50 mA) was applied to both corneas. The occurrence of tonic extension of the hindlimbs was noted.

rat mGluR2 = rat mGluR2 (Rattus norvegicus, UniProt P31421); experiment: [3H]LY341495 binding to membranes; parameters: expressed in transfected cells; host or cells: inducible HEK-293 cell line (membranes)
rat mGluR2, sequence (P31421 19-872): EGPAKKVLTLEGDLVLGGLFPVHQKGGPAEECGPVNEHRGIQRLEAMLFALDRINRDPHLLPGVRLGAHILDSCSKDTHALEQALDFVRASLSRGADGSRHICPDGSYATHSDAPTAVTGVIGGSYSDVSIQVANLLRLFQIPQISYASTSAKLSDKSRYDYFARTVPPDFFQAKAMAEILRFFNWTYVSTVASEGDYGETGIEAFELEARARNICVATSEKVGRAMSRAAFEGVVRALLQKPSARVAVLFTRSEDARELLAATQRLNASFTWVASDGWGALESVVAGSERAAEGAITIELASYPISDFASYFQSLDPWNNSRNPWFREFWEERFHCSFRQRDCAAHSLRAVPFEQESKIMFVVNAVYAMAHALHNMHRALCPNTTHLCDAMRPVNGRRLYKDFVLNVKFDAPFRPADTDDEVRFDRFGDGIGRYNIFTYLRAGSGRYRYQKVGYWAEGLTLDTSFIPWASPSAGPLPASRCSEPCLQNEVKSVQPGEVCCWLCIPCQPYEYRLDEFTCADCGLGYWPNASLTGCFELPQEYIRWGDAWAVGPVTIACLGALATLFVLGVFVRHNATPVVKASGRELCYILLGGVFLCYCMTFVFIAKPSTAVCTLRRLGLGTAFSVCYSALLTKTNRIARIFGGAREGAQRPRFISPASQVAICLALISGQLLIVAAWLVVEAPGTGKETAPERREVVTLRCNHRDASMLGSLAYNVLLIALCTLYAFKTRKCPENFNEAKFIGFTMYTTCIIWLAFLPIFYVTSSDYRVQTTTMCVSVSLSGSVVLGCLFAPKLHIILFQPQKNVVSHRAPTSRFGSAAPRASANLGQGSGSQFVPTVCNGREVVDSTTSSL
Protocol: Binding assay was adapted from Johnson et al.[29]. […] Addition of 5–10 μg membrane protein initiated the incubation. After 45 min at room temperature, the incubation was terminated by rapid filtration followed by scintillation counting. Ki’s were calculated using 4-parameter curve fitting.

rat mGluR3 = molecular target: T1, rat mGluR3 (Rattus norvegicus, UniProt P31422); experiment: [3H]LY341495 binding to membranes; details: Fig. 5C
T1 construct: expressed in transfected cells; host or cells: inducible HEK-293 cell line (membranes)
T1 sequence (P31422 23-879): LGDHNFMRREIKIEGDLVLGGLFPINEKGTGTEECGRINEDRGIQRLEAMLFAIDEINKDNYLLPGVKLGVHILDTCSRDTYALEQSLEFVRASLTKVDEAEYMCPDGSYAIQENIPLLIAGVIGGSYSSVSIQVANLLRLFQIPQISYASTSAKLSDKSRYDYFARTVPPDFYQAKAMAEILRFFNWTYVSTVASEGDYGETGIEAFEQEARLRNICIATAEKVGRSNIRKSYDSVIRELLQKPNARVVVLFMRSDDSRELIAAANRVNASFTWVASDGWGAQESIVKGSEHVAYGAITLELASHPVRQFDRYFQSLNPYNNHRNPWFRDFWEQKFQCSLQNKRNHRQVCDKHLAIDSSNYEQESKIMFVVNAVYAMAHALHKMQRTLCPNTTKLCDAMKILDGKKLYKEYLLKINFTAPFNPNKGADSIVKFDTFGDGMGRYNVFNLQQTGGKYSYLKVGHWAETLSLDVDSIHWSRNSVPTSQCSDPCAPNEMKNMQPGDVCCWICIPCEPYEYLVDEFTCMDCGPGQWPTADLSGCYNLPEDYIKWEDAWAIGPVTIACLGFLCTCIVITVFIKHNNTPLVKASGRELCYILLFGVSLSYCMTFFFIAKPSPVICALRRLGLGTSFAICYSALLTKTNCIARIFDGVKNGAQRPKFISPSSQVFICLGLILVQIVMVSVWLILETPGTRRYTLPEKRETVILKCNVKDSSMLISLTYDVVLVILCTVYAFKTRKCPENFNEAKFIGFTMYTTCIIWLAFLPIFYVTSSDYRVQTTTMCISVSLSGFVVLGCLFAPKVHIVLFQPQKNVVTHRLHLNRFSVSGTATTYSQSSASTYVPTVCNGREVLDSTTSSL
Protocol: Membranes were prepared from an inducible HEK-293 cell line expressing rat mGluR2 or mGluR3. Binding assay was adapted from Johnson et al.[29]. Briefly, [^3H]LY341495 (1.4 nM) was evaluated for binding in the presence or in the absence of orthosteric and allosteric ligands. […] Addition of 5–10 μg membrane protein initiated the incubation. After 45 min at room temperature, the incubation was terminated by rapid filtration followed by scintillation counting. Ki’s were calculated using 4-parameter curve fitting.

native mouse mGluR2 = molecular target: T2, native mouse mGluR2 (Mus musculus, UniProt Q14BI2); experiment: [35S]GTPγS binding to mouse cortex; format: biochemical; details: glutamate EC20 (1 μM) + SAR218645
T2 construct: SAR218645 acted as a pure mGluR2 PAM at native mouse mGluR2 in the cortex; from tissue; host or cells: mouse cortex membranes
T2 sequence (Q14BI2 19-872): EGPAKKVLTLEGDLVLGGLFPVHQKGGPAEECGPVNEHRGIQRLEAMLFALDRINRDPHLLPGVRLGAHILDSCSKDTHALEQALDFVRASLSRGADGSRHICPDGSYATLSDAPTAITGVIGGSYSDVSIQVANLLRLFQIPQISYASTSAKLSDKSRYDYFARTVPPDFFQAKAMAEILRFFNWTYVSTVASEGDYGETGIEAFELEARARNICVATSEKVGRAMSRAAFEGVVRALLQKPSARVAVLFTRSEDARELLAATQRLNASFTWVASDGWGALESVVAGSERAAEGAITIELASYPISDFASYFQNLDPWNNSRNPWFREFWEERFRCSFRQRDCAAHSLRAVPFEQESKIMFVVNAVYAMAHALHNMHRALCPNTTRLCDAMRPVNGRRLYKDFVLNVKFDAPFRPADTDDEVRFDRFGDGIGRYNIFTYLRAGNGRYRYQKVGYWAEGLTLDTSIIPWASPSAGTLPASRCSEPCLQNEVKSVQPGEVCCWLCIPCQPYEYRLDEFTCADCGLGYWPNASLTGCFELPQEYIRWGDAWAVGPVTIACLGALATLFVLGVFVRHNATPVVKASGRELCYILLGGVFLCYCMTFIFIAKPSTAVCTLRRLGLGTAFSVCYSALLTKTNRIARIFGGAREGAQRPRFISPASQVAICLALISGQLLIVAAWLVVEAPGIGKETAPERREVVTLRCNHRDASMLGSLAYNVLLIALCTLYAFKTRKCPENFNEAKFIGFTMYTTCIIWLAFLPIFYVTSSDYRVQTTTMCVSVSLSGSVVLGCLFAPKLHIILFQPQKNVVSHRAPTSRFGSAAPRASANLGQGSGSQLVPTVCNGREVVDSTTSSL
Protocol: The assay was performed in 96-well filtration plates in 250 μl total volume. […] For termination of the reaction, the plate was filtered and dried prior to adding 50 μl Microscint 40, and counted on the 1450 TopCount Microbeta Counter. EC50 were calculated using 4-parameter curve fitting.

CD-1 mice [1] = experiment: LY404039-induced turning behavior; format: in vivo; details: LY341495 0.3 mg/kg ip; P < 0.001
Protocol: Under light restraint, a single unilateral intracortical infusion of the selective mGluR2/3 receptor agonist, LY404039, was performed in CD-1 mice (25–30 g at arrival). An injection point was assessed using the eyes and back of the skull as landmarks. Immediately following the application of LY404039, the observation period began. The number of contralateral turns elicited in a 5 min period was recorded. SAR218645 was administered orally 60 min before infusion of LY404039 and the potentiation of the turning behavior was noted. The selective mGluR2/3 receptor antagonist, LY341495, was administered ip 90 min prior to infusion of LY404039. Statistical analysis was performed using Kruskal Wallis test followed by a Wilcoxon two-tailed comparison. Ten animals per group were used.

Sprague-Dawley rats = experiment: Amphetamine-induced disruption of auditory evoked potentials (AEP); format: in vivo; details: 3 mg/kg po; amphetamine 3 mg/kg
From the text: All recordings were made using Spike2 software (Cambridge Electronic Design, Cambridge, UK) running on a Windows PC connected to a 1401 interface (Cambridge Electronic Design, Cambridge, UK). EEG recordings were created by connecting the skull plug to an amplifying head stage (AI 1401, Axon Instruments, Union City, CA, USA), via a 6-channel commutator and cable (Plastics One, Roanoke, VA, USA). The signal was then further amplified with a multichannel amplifier (Cyberamp 380, Axon Instruments, Union City, CA, USA). Auditory stimuli were controlled by the interface via an eight channel power amplifier (SA8, Tucker Davis Technologies, Alachua, FL) connected to a patch panel (PP16, Tucker Davis Technologies), which was connected to speakers located above each cage (TDT Magnetic Speakers, Tucker Davis Technologies). During recording sessions, animals were placed inside standard mouse cages (30 × 15 × 15 cm) and rigged so that the six channel cables could connect with the rest of the apparatus outside of the cage.
Male Sprague-Dawley rats (150–180 g at arrival) were anesthetized with 3% isoflurane and their scalp was shaved and prepared for surgery. An incision was made in the scalp and the skin was retracted to allow direct contact with the skull surface. The skull was cleaned with a dry Q-tip and five holes were drilled through the skull. Three holes were drilled at coordinates AP + 1 mm, ML + 1 mm (reference); AP−4 mm, ML ± 4 mm (leads 1 and 2) relative to bregma, while an additional hole was drilled in the frontal area (ground) and another hole was drilled at the midpoint between the anterior and posterior coordinate (anchor). […]
AEP data analysis: Data were collected and analyzed using Spike2 software (CED Software, Cambridge, UK). […] Then a horizontal cursor was placed at the highest and lowest (peak and trough) point of the P1/N1 wave, for both the wave occurring to the first tone (S1) and to the second tone (S2), and the value was recorded into an Excel spreadsheet. […]

CD-1 mice [2] = experiment: DOI-induced head-twitch behaviors; format: in vivo; details: po; DOI 1 mg/kg ip
Protocol: Male CD-1 mice weighing 25–30 g at the time of testing were used. Animals were brought into the testing area and allowed at least 30 min to acclimatize. The behavior observation was conducted in a wire test chamber measuring 10 cm^3. SAR218645 or the selective 5-HT2A receptor antagonist, volinanserin, was administered po at various times before administration of DOI. DOI was injected ip at a dose of 1 mg/kg. Five minutes later behavioral observation commenced. A trained (blinded) observer continuously watched the mice for 20 min and noted the number of DOI-induced head twitches during this time. The number of head twitches per group was averaged and SAR218645 or volinanserin plus DOI were compared to DOI alone. Three to eight animals per group were used.

For `CN1C(=O)CN=C(c2ccccc2)c2cc(Cl)ccc21` [Diazepam, reference compound], the Tonic seizures (OF1 mice) was 0%.

`N[C@@]1(C(=O)O)CS(=O)(=O)[C@H]2[C@H](C(=O)O)[C@H]21` [LY404039, (-)-(1R,4S,5S,6S)-4-amino-2-sulfonylbicyclo[3.1.0]hexane-4,6-dicarboxylic acid, reference compound] showed a Ki (rat mGluR2; Fig. 5A) of 462 nM and a Ki (rat mGluR3) of 901 nM.

With `N[C@@H](CCC(=O)O)C(=O)O` [Glutamate, L-glutamatic acid, reference compound] the “maximal binding, glutamate alone” value (rat mGluR2; absence of SAR218645, Fig. 5B) was 108% and the Ki (rat mGluR3) was 400 nM.

In the case of `N[C@](CC1c2ccccc2Oc2ccccc21)(C(=O)O)[C@H]1C[C@@H]1C(=O)O` [LY341495, reference compound], the “antagonism of the SAR218645 potentiation” value (native mouse mGluR2) is reported as “blocked” and the “antagonism of the effect of SAR218645 (10 mg/kg) on turning” value (CD-1 mice [1]) is reported as “blocked”.

For `O=C(Oc1ccc(Br)cc1)N1CCN2CCC1CC2` [SSR180711, reference compound], the “effect on amphetamine-disrupted auditory gating (S2/S1 ratio)” value (Sprague-Dawley rats) was “attenuated amphetamine-induced disrupted gating”.

In the case of `COc1cccc([C@H](O)C2CCN(CCc3ccc(F)cc3)CC2)c1OC` [volinanserin, reference compound], the “effect on DOI-induced head twitches (reference)” value (CD-1 mice [2]) is reported as “inhibited”.
